# Assays:
# HLA-2.1 transgenic mice = HLA-2.1 transgenic mice (Ressing 1995); cited from earlier work
# human PBMCs = human PBMCs (Ressing 1995); cited from earlier work
# [1] = test system: peptide-pulsed target cells; assay: Chromium release assay of cytotoxic T lymphocyte lines on peptide-pulsed target cells; conditions: seven HLA-A2 positive women with cleared HPV16 infection
sequence,measurement,setting,value
LLMGTLGIV [E7 82-90],immunogenicity in vivo,HLA-2.1 transgenic mice,immunogenic
same,immunogenicity by in vitro CTL induction,human PBMCs,confirmed the immunogenicity
same,lysis of peptide-pulsed target cells by T cell lines,[1],positive response

# From patent publication US20060182763A1, “CD8 T cell epitopes in HPV 16 E6 and E7 proteins and uses thereof” (priority 2005, published 2006)
